Counter-ions that a name gives are not always drawn.
Tests used:
human GLP-1R [1] = molecular target: T1, human GLP-1R (Homo sapiens, UniProt P43220); experiment: Human GLP-1 Receptor HEK293 cell cAMP assay, 581 fmol/mg GLP-1R expression density; assay type: cell-based; design: expressed in transfected cells; host or cells: HEK293 clonal cell line; conditions: HEK293 cell line with 581 fmol/mg expression density of GLP-1R; for EC50: geometric mean, read-out: EC50 nM (SEM, n), intracellular cAMP response, relative EC50; for Emax: percent of maximal response to GLP-1(7-36)NH2, arithmetic mean, read-out: Emax % (SEM, n), intracellular cAMP response
T1 sequence (P43220 24-463): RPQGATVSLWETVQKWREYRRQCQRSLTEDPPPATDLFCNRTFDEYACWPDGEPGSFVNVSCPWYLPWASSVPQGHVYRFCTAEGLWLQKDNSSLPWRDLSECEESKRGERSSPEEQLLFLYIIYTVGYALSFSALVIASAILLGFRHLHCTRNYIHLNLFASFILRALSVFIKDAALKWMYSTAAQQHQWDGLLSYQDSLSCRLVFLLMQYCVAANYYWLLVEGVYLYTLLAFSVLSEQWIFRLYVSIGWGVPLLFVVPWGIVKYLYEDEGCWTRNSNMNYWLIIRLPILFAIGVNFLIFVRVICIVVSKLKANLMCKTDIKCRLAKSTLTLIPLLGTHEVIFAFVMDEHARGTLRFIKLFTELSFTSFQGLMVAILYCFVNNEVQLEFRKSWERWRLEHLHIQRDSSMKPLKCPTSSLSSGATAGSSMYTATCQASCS
Procedure: (§1) Human GLP-1 Receptor HEK293 Cell cAMP Assay
(§2) GLP-1 Receptor functional activity is determined using cAMP formation in an HEK293 clonal cell line expressing human GLP-1R (NCBI accession number NP_002053) at an expression density of 581±94 (n=6) and 104±12 (n=5) fmol/mg protein (determined using [^125I]GLP-1(7-36)NH2 homologous competition binding analysis). The hGLP-1R receptor expressing cells are treated with compound (20 point concentration-response curve in DMSO, 2.75-fold Labcyte Echo direct dilution, 384 well plate Corning Cat #3570) in DMEM (Gibco Cat #31053) supplemented with 1× GlutaMAX™ (Gibco Cat #35050), 0.1% bovine casein (Sigma C4765-10ML), 250 μM IBMX (3-Isobutyl-1-methylxanthine, Acros Cat #228420010) and 20 mM HEPES (Gibco Cat #15630) in a 20 μL assay volume (final DMSO concentration is 0.5%). After a 30 min incubation at 37° C., the resulting increase in intracellular cAMP is quantitatively determined using the CisBio cAMP Dynamic 2 HTRF Assay Kit (62AM4PEJ). Briefly, cAMP levels within the cell are detected by adding the cAMP-d2 conjugate in cell lysis buffer (10 μL) followed by the antibody anti-cAMP-Eu^3+-Cryptate, also in cell lysis buffer (10 μL). The resulting competitive assay is incubated for at least 60 min at RT, then detected using a PerkinElmer Envision® instrument with excitation at 320 nm and emission at 665 nm and 620 nm. Envision units (emission at 665 nm/620 nm*10,000) are inversely proportional to the amount of cAMP present and are converted to nM cAMP per well using a cAMP standard curve. The amount of cAMP generated (nM) in each well is converted to a percent of the maximal response observed with human GLP-1(7-36)NH2. A relative EC50 value and percent top (Emax) are derived by non-linear regression analysis using the percent maximal response vs. the concentration of compound added, fitted to a four-parameter logistic equation.

human GLP-1R [2] = molecular target: T1, human GLP-1R; experiment: Human GLP-1 Receptor HEK293 cell cAMP assay, 104 fmol/mg GLP-1R expression density; assay type: cell-based; design: expressed in transfected cells; host or cells: HEK293 clonal cell line; conditions: HEK293 cell line with 104 fmol/mg expression density of GLP-1R; for EC50: geometric mean, read-out: EC50 nM (SEM, n), intracellular cAMP response, relative EC50; for Emax: percent of maximal response to GLP-1(7-36)NH2, arithmetic mean, read-out: Emax % (SEM, n), intracellular cAMP response
Procedure: as §1, §2

| Structure (SMILES) | EC50 (human GLP-1R [1]) [nM] | Emax (human GLP-1R [1]) [%] | EC50 (human GLP-1R [2]) [nM] | Emax (human GLP-1R [2]) [%] |
| --- | --- | --- | --- | --- |
| Cn1cc(-c2ccc3c(c2)CCCOc2cc(ccc2Cc2nc4ccc(C(=O)O)cc4n2C[C@@H]2CCO2)-c2cccc(n2)OC3)ccc1=O [Example 36, (S)-2-((5^4-(1-Methyl-6-oxo-1,6-dihydropyridin-3-yl)-3,9-dioxa-2(2,6)-pyridina-1(1,3),5(1,2)-dibenzenacyclononaphane-1^4-yl)methyl)-1-(oxetan-2-ylmethyl)-1H-benzo[d]imidazole-6-carboxylic acid] | 44 | 108 | 149 | 80 |
| O=C(O)c1ccc2nc(Cc3ccc4cc3OCCCc3cc(-c5cccnc5)ccc3COc3cccc-4n3)n(C[C@@H]3CCO3)c2c1 [Example 37, (S)-1-(Oxetan-2-ylmethyl)-2-((5^4-(pyridin-3-yl)-3,9-dioxa-2(2,6)-pyridina-1(1,3),5(1,2)-dibenzenacyclononaphane-1^4-yl)methyl)-1H-benzo[d]imidazole-6-carboxylic acid] | 179 | 103 | 506 | 79.7 |
| CNC(=O)c1ccc(-c2ccc3c(c2)CCCOc2cc(ccc2Cc2nc4ccc(C(=O)O)cc4n2C[C@@H]2CCO2)-c2cccc(n2)OC3)cc1 [Example 38, (S)-2-((5^4-(4-(Methylcarbamoyl)phenyl)-3,9-dioxa-2(2,6)-pyridina-1(1,3),5(1,2)-dibenzenacyclononaphane-1^4-yl)methyl)-1-(oxetan-2-ylmethyl)-1H-benzo[d]imidazole-6-carboxylic acid] | 300 | 90.1 | 613 | 56.9 |
| O=C(O)c1ccc2nc(Cc3ccc4cc3OCCCc3cc(-c5ccc(CO)cc5)ccc3COc3cccc-4n3)n(C[C@@H]3CCO3)c2c1 [Example 39, (S)-2-((5^4-(4-(Hydroxymethyl)phenyl)-3,9-dioxa-2(2,6)-pyridina-1(1,3),5(1,2)-dibenzenacyclononaphane-1^4-yl)methyl)-1-(oxetan-2-ylmethyl)-1H-benzo[d]imidazole-6-carboxylic acid] | 244 | 99 | 762 | 76.6 |
| Cn1cc(-c2ccc3c(c2)CCCOc2cc(ccc2Cc2nc4ccc(C(=O)O)cc4n2C[C@@H]2CCO2)-c2cccc(n2)OC3)cn1 [Example 40, (S)-2-((5^4-(1-Methyl-1H-pyrazol-4-yl)-3,9-dioxa-2(2,6)-pyridina-1(1,3),5(1,2)-dibenzenacyclononaphane-1^4-yl)methyl)-1-(oxetan-2-ylmethyl)-1H-benzo[d]imidazole-6-carboxylic acid] | 42.4 | 110 | 154 | 85.9 |
| N#Cc1ccc2c(c1)CCCOc1cc(ccc1Cc1nc3ccc(-c4nnn[nH]4)cc3n1C[C@@H]1CCO1)-c1cccc(n1)OC2 [Example 41, (S)-1^4-((1-(Oxetan-2-ylmethyl)-6-(1H-tetrazol-5-yl)-1H-benzo[d]imidazol-2-yl)methyl)-3,9-dioxa-2(2,6)-pyridina-1(1,3),5(1,2)-dibenzenacyclononaphane-5^4-carbonitrile] | 184 | 89.1 | 713 | 60.3 |
| N#Cc1ccc2c(c1)OCCc1cc(c(F)cc1Cc1nc3ccc(C(=O)O)cc3n1C[C@@H]1CCO1)-c1cccc(n1)OC2 [Example 42, (S)-2-((5^4-Cyano-1^6-fluoro-3,6-dioxa-2(2,6)-pyridina-1(1,3),5(1,2)-dibenzenacyclooctaphane-1^4-yl)methyl)-1-(oxetan-2-ylmethyl)-1H-benzo[d]imidazole-6-carboxylic acid] | 187 | 103 | 539 | 66.4 |
| COc1cc(C(=O)O)cc2c1nc(Cc1cc(F)c3cc1OCCCc1cc(C#N)cnc1COc1cccc-3n1)n2C[C@@H]1CCO1 [Example 43, (S)-2-((5^5-Cyano-1^6-fluoro-3,9-dioxa-2(2,6),5(2,3)-dipyridina-1(1,3)-benzenacyclononaphane-1^4-yl)methyl)-4-methoxy-1-(oxetan-2-ylmethyl)-1H-benzo[d]imidazole-6-carboxylic acid diformate salt] | 48.6 | 86.9 | 194 | 72 |
| COc1cc(C(=O)O)cc2c1nc(Cc1cc(F)c3cc1CCOCc1cc(C#N)ccc1COc1cccc-3n1)n2C[C@@H]1CCO1 [Example 44, (S)-2-((5^4-Cyano-1^6-fluoro-3,7-dioxa-2(2,6)-pyridina-1(1,3),5(1,2)-dibenzenacyclononaphane-1^4-yl)methyl)-4-methoxy-1-(oxetan-2-ylmethyl)-1H-benzo[d]imidazole-6-carboxylic acid] | 4.14 | 112 | 16.4 | 85.5 |
| COCCOc1cc(C(=O)O)cc2c1nc(Cc1cc(F)c3cc1COCCc1cc(Cl)cc(F)c1COc1cccc-3n1)n2C[C@@H]1CCO1 [Example 45, (S)-2-((5^4-Chloro-1^6,5^6-difluoro-3,8-dioxa-2(2,6)-pyridina-1(1,3),5(1,2)-dibenzenacyclononaphane-1^4-yl)methyl)-4-(2-methoxyethoxy)-1-(oxetan-2-ylmethyl)-1H-benzo[d]imidazole-6-carboxylic acid] | 2.4 | 122 | 7.57 | 87.9 |

Other lines, results leading:

| EC50 (human GLP-1R [1]) [nM] | Emax (human GLP-1R [1]) [%] | EC50 (human GLP-1R [2]) [nM] | Emax (human GLP-1R [2]) [%] | Structure (SMILES) |
| --- | --- | --- | --- | --- |
| 7.23 | 107 | 24.6 | 91.7 | COCCOc1cc(C(=O)O)cc2c1nc(Cc1ccc3cc1COCCc1nc(ccc1C#N)COc1cccc-3n1)n2C[C@@H]1CCO1 [Example 46, (S)-2-((5^5-Cyano-3,8-dioxa-2,5(2,6)-dipyridina-1(1,3)-benzenacyclononaphane-1^4-yl)methyl)-4-(2-methoxyethoxy)-1-(oxetan-2-ylmethyl)-1H-benzo[d]imidazole-6-carboxylic acid] |
| 25.1 | 110 | 116 | 108 | COCCOc1cc(C(=O)O)cc2c1nc(Cc1cc(F)c3cc1CCOCc1cc(ccc1Cl)COc1cccc-3n1)n2C[C@@H]1CCO1 [Example 47, (S)-2-((5^4-Chloro-1^6-fluoro-3,7-dioxa-2(2,6)-pyridina-1,5(1,3)-dibenzenacyclononaphane-1^4-yl)methyl)-4-(2-methoxyethoxy)-1-(oxetan-2-ylmethyl)-1H-benzo[d]imidazole-6-carboxylic acid] |
| 11.2 | 108 | 31.5 | 86.8 | COCCOc1cc(C(=O)O)cc2c1nc(Cc1cc(F)c3cc1CCOCc1cc(ccc1C#N)COc1cccc-3n1)n2C[C@@H]1CCO1 [Example 48, (S)-2-((5^4-Cyano-1^6-fluoro-3,7-dioxa-2(2,6)-pyridina-1,5(1,3)-dibenzenacyclononaphane-1^4-yl)methyl)-4-(2-methoxyethoxy)-1-(oxetan-2-ylmethyl)-1H-benzo[d]imidazole-6-carboxylic acid] |
| 2.33 | 112 | 8.39 | 85.5 | COCCOc1cc(C(=O)O)cc2c1nc(Cc1ccc3cc1COCCc1cc(C#N)ccc1COc1ccc(F)c-3n1)n2C[C@@H]1CCO1 [Example 49, (S)-2-((5^4-Cyano-2^3-fluoro-3,8-dioxa-2(2,6)-pyridina-1(1,3),5(1,2)-dibenzenacyclononaphane-1^4-yl)methyl)-4-(2-methoxyethoxy)-1-(oxetan-2-ylmethyl)-1H-benzo[d]imidazole-6-carboxylic acid] |
| 38.1 | 115 | 128 | 82.8 | COCCOc1cc(C(=O)O)cc2c1nc(Cc1ccc3cc1COCC(F)(F)c1cc(C#N)ccc1COc1cccc-3n1)n2C[C@@H]1CCO1 [Example 50, (S)-2-((5^4-cyano-6,6-difluoro-3.8-dioxa-2(2,6)-pyridina-1(1,3),5(1,2)-dibenzenacyclonaphane-1^4-yl)methyl)-4-(2-methoxyethoxy)-1-(oxatan-2-ylmethyl)-1H-benzo[d]imidazole-6-carboxylic acid] |

Source: patent US20240343740A1, “MACROCYCLIC GLUCAGON-LIKE PEPTIDE 1 RECEPTOR AGONISTS” (Eli Lilly and Company, priority 2021, published 2024)
